Tests used:
alpha1 -adrenoceptors = assay: [^3 H]-prazosin binding assay (affinity for alpha1-adrenoceptors); conditions: rat brain membranes, 0.2 nM [^3 H]-prazosin, 60 minutes at 25°
Procedure: The [^3 H]-prazosin binding assay was carried out according to the method described by Timmermans, P. B. M. W. M., Schoop, A. M. C., and Van Zwieten, P. A.: Biochem Pharmacol., 31, 899-905, 1982 (1). The reaction mixture contained partially purified rat brain membranes (source of alpha1 -adrenoceptors), 0.2 nM [^3 H]-prazosin with or without potential displacer in Tris buffer. The mixture was incubated for 60 minutes at 25° and subsequently terminated by rapid filtration through glass fiber-filter. Receptor-bound [^3 H]-prazosin trapped in the filter was quantitated by scintillation counting. The inhibitory concentration (IC50) of potential displacer which gives 50% displacement of the total specifically bound [^3 H]-prazosin is presented as a measure of the affinity of such compound for the alpha1 -adrenoceptor.

Ca^2 + channels = molecular target: T1, Ca^2 + channels (Rattus norvegicus, UniProt P22002); assay: [^3 H]-Nitrendipine binding assay (affinity for calcium channels); conditions: rat cardiac microsomes, 0.5 nM [^3 H]-nitrendipine, 60 minutes at 25°
T1 construct: rat cardiac microsomes (source of Ca^2 + channels); from tissue; host or cells: rat cardiac microsomes
Procedure: [^3 H]-Nitrendipine binding assay was carried out according to the method described by G. T. Bolger, et al., Biochem. Biophys. Res. Comm., 104, 1604-1609, 1982 (1). The reaction mixture contained rat cardiac microsomes (source of Ca^2 + channels), 0.5 nM [^3 H]-nitrendipinewith or without potential displacer in Tris buffer. The mixture was incubated for 60 minutes at 25° and subsequently terminated by rapid filtration through a glass fiber-filter. Membrane-bound [^3 H]-nitrendipine trapped in the filter was quantitated by scintillation counting. The inhibitory concentration (IC50) of potential displacer which gives 50% displacement of the total specifically bound [^3 H]-nitrendipine is presented as a measure of the affinity of such compound for the Ca^2 + channel.

guinea pig left atria = assay: Positive inotropic effect in guinea pig left atria; conditions: 37°; for EC50: left atria paced at 2Hz, cumulative addition to maximum 10^-4, read-out: EC50 (concentration that increases DT by 50% above the control DT); for Intrinsic Activity (ratio of the maximum effect of the test compound to that of Bay K 8644): relative to Bay K 8644, left atria paced at 2Hz
Procedure: Guinea pigs are killed by cervical dislocation. The left atria are removed and mounted at 1 gm resting tension in tissue baths containing oxygenated Krebs bicarbonate solution which is kept at 37°. The left atria are electrically paced at 2Hz with square wave pulses of 1 msec duration. The voltage is set at 1.5× threshold level.
After a one hour equilibration period, control values for developed tension (DT, gm) are recorded. Test compounds are then added to the baths, in a cumulative manner to a maximum concentration of 10^-4, to obtain a concentration-response curve. Treatment values of DT are obtained after the rug effect has reached a plateau and the exposure time for each concentration is 5-8 minutes. Percent change of the treatment value from the control value is calculated at each concentration of the test compound.

calcium ions influx = conditions: cited from earlier work
[1] = tested on: coronary vasoconstriction; conditions: cited from earlier work

T1 sequence (P22002 whole entry, other chains not shown): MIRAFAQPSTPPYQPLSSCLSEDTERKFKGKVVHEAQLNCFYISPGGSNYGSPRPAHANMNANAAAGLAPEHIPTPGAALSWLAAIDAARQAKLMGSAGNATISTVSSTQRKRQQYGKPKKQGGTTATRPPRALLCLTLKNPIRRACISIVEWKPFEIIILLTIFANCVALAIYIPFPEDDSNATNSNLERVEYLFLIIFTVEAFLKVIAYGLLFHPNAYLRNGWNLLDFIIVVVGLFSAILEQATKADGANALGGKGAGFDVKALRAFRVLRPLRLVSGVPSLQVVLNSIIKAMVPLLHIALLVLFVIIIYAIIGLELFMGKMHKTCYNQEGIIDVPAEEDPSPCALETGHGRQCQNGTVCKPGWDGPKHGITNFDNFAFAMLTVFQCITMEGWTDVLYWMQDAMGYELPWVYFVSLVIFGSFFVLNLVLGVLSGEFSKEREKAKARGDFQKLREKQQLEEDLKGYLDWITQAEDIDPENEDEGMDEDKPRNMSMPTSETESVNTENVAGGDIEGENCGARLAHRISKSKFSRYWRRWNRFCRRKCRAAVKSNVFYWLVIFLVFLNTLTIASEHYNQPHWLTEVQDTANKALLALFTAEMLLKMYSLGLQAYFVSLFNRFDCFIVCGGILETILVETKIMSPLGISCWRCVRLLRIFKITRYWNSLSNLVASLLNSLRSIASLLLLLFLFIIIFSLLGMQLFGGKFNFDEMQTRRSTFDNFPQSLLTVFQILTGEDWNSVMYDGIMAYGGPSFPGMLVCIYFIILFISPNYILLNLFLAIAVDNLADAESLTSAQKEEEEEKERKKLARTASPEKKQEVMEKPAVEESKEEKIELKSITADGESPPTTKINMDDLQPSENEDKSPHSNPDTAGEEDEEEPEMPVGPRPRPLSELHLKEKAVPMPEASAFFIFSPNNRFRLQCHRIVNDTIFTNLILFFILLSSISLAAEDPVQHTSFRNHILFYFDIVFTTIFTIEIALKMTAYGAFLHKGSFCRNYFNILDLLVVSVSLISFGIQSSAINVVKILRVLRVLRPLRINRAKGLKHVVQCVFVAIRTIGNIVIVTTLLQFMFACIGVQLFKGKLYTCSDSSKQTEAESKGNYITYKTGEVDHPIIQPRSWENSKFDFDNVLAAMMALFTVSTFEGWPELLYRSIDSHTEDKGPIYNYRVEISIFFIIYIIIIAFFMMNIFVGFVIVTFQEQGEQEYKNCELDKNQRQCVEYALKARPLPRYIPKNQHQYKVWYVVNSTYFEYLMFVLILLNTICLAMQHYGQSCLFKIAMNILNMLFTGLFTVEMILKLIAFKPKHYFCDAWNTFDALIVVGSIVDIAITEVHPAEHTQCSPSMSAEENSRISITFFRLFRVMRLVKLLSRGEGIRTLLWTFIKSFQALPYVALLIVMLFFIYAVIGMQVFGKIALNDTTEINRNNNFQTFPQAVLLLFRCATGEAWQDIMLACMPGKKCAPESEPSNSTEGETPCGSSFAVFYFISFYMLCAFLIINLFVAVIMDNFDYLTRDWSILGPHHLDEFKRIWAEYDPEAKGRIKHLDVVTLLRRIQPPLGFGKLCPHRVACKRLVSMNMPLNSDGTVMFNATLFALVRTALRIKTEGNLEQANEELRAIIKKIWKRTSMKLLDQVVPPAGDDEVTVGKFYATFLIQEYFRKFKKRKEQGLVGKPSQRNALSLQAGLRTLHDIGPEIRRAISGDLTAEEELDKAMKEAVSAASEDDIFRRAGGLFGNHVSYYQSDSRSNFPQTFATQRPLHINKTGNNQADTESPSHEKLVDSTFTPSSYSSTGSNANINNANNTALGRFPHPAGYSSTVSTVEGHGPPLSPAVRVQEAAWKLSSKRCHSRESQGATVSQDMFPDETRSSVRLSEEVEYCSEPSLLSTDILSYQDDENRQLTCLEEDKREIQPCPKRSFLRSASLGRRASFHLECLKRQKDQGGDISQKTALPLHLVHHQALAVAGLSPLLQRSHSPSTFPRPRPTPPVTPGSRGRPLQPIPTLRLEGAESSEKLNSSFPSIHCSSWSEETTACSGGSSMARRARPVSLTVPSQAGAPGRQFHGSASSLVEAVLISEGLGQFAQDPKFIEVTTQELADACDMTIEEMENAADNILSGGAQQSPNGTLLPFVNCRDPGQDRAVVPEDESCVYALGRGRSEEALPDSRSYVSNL
T1 sequence (P54290 25-944 partner limits assumed, other chains not shown): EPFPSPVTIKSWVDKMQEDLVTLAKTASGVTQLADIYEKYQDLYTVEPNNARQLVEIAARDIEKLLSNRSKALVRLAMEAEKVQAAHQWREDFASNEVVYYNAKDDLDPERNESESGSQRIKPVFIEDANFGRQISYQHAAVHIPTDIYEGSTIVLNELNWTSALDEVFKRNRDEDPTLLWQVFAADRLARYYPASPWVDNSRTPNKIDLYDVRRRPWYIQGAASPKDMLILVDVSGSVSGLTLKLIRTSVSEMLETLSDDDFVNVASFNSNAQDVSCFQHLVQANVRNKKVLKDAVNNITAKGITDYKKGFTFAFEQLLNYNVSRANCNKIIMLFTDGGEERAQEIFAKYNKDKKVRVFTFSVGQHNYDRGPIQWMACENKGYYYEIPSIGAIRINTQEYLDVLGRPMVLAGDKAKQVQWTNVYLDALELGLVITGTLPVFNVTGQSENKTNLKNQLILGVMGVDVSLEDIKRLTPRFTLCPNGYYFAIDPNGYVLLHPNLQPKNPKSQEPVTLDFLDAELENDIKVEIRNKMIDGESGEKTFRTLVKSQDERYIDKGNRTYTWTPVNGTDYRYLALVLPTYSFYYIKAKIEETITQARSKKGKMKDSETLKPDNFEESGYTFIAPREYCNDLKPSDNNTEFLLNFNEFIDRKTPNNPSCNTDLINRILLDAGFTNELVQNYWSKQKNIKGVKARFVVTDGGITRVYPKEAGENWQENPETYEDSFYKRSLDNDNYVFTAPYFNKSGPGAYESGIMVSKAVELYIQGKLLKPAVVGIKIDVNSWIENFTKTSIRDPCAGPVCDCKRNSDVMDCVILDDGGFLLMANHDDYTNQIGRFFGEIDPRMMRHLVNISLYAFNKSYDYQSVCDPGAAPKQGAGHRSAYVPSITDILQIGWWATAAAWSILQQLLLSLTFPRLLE
T1 sequence (P54290 945-1091 partner limits assumed, other chains not shown): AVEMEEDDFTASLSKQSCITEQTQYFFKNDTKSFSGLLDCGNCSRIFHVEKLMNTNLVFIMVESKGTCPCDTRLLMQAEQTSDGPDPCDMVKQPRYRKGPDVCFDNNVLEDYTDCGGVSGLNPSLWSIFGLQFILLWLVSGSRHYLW

Compound	IC50 (alpha1 -adrenoceptors) [µM]	IC50 (Ca^2 + channels) [µM]	EC50 (guinea pig left atria) [µM]	Intrinsic Activity (ratio of the maximum effect of the test compound to that of Bay K 8644) (guinea pig left atria) [%]	calcium ion influx and resulting effects (calcium ions influx)	potency as a calcium agonist relative to CGP28392 (calcium ions influx; compared with CGP28392)	toxicity [1]
COC(=O)C1=C(C)NC(C)=C([N+](=O)[O-])C1c1ccccc1OCCCCCCN1CCN(c2ccccc2OC)CC1 (stereo not shown) [Example 129]	0.38	0.36	2	15			
COC(=O)C1=C(C)NC(C)=C([N+](=O)[O-])C1c1ccccc1OCCN1CCN(c2ccccc2OC)CC1 (stereo not shown) [Example 58]	0.13	0.85	1.9	90			
COC(=O)C1=C(C)NC(C)=C([N+](=O)[O-])C1c1cccc(OCCN2CCN(c3ccccc3OC)CC2)c1 (stereo not shown) [Example 69]	0.35	4.6	> 100	10			
COC(=O)C1=C(C)NC(C)=C([N+](=O)[O-])C1c1cccc([N+](=O)[O-])c1OCCCCCN1CCN(c2ccccc2OC)CC1 (stereo not shown) [Example 140]	0.18	0.16	> 100	0			
COC(=O)C1=C(C)NC(C)=C([N+](=O)[O-])C1c1cccc(OCCCN2CCN(c3ccccc3OC)CC2)c1 (stereo not shown) [Example 89]	0.071	4	20	20			
COC(=O)C1=C(C)NC(C)=C([N+](=O)[O-])C1c1ccccc1OCCCCCCCCCCN1CCN(c2ccccc2OC)CC1 (stereo not shown) [Example 61, 1,4-dihydro-2,6-dimethyl-4[2(10-(4-(2-methoxyphenyl)-piperazinyl)decyloxy)phenyl]-5-nitro-methyl ester-3-pyridinecarboxylic acid]	1.1	0.067	> 100	10			
COC(=O)C1=C(C)NC(C)=C([N+](=O)[O-])C1c1ccccc1OCCCCN1CCN(c2ccccn2)CC1 (stereo not shown) [Example 116]	0.5	0.58	> 100	0			
CCOC(=O)C1=C(C)NC(C)=C([N+](=O)[O-])C1c1cccc(OCCCN2CCN(c3ccccc3OC)CC2)c1 (stereo not shown) [Example 117]	0.28	10	> 100	0			
COC(=O)C1=C(C)NC(C)=C([N+](=O)[O-])C1c1cccc(OC)c1OC/C=C\CN1CCN(c2ccccc2OC)CC1 (stereo not shown) [Example 114]	0.24	1.6	> 100	0			
COc1ccccc1N1CCN(CCCCOC(=O)C2=C(C)NC(C)=C([N+](=O)[O-])C2c2ccccc2C(F)(F)F)CC1 (stereo not shown) [Example 56]	0.3	0.3	6	100			
COC(=O)C1=C(C)NC(C)=C([N+](=O)[O-])C1c1ccccc1OCCCCCN1CCN(c2ccccc2OC)CC1 (stereo not shown) [Example 59, 1,4-dihydro-2,6-dimethyl-4[2-(5-(4-(2-methoxyphenyl)-1-piperazinyl)pentoxyl)-phenyl]-5-nitro-methyl ester-3-pyridinecarboxylic acid]	0.13	0.29	1	35			
COC(=O)C1=C(C)NC(C)=C([N+](=O)[O-])C1c1cccc(OCCCCCN2CCN(c3ccccc3OC)CC2)c1 (stereo not shown) [Example 113]	0.57	3.3	> 100	0			
COC(=O)C1=C(C)NC(C)=C([N+](=O)[O-])C1c1cccc([N+](=O)[O-])c1OCCCN1CCN(c2ccccc2OC)CC1 (stereo not shown) [Example 139]	0.14	0.12	> 100	0			
CCOC(=O)C1=C(C)NC(C)=C([N+](=O)[O-])C1c1ccccc1OCCCCN1CCN(c2ccccc2OC)CC1 (stereo not shown) [Example 120]	0.44	0.47	30	50			
CCOC(=O)C1=C(C)NC2=C(C(=O)OC2)C1c1ccccc1OC(F)F (stereo not shown) [CGP28392]					promote an influx of calcium ions, therefore producing positive inotropic and vasoconstrictor effects		
CCOc1cccc(C2C(C(=O)OC)=C(C)NC(C)=C2[N+](=O)[O-])c1OCCCN1CCN(c2ccccc2OC)CC1 (stereo not shown) [Example 108]	1.2	0.99	> 100	0			
COC(=O)C1=C(C)NC(C)=C([N+](=O)[O-])C1c1cccc(OC)c1OCCCN1CCN(c2ccccc2OC)CC1 (stereo not shown) [Example 106]	0.14	0.25	> 100	0			
COc1cccc(OC)c1OCCNCCOC(=O)C1=C(C)NC(C)=C([N+](=O)[O-])C1c1ccccc1C(F)(F)F (stereo not shown) [Example 13]	> 10	0.83	30	50			
COC(=O)C1=C(C)NC(C)=C([N+](=O)[O-])C1c1cccc(OCCCN2CCN(C(c3ccc(F)cc3)c3ccc(F)cc3)CC2)c1 (stereo not shown) [Example 123]	4.5	1.7	> 100	0			
COc1ccccc1N1CCN(CCOC(=O)C2=C(C)NC(C)=C([N+](=O)[O-])C2c2ccccc2C(F)(F)F)CC1 (stereo not shown) [Example 2, 1,4-Dihydro-2,6-Dimethyl-5-nitro-4-[2-(trifluoromethyl)phenyl]-[2-[4-(2-methoxyphenyl)-1-piperazinyl]ethyl]ester-3-pyridinecarboxylic acid]	0.8	0.029	0.044	145			
COc1ccccc1N1CCN(CCOC(=O)C2=C(C)NC(C)=C([N+](=O)[O-])C2c2ccccc2Cl)CC1 (stereo not shown) [Example 5]	0.49	0.073	0.56	100			
COC(=O)C1=C(C)NC(C)=C([N+](=O)[O-])C1c1cccc(OCCCCCCN2CCN(c3ccccc3OC)CC2)c1 (stereo not shown) [Example 130]	0.33	0.38	3	25			
COC(=O)C1=C(C)NC(C)=C([N+](=O)[O-])C1c1cccc(OCC=CCN2CCN(c3ccccc3OC)CC2)c1 (stereo not shown) [Example 125]	0.44	1.4	> 100	0			
CCOc1cccc(C2C(C(=O)OC)=C(C)NC(C)=C2[N+](=O)[O-])c1OCCCCCN1CCN(c2ccccc2OC)CC1 (stereo not shown) [Example 112]	0.18	1.7	> 100	0			
COC(=O)C1=C(C)NC(C)=C([N+](=O)[O-])C1c1cccc(OC)c1OCCCCCN1CCN(c2ccccc2OC)CC1 (stereo not shown) [Example 111]	0.19	0.85	> 100	0			
COC(=O)C1=C(C)NC(C)=C([N+](=O)[O-])C1c1cc(Br)ccc1OCCCCN1CCN(c2ccccc2OC)CC1 (stereo not shown) [Example 142]	0.25	0.18	> 100	0			
COC(=O)C1=C(C)NC(C)=C([N+](=O)[O-])C1c1ccccc1C(F)(F)F (stereo not shown) [Bay K8644]			0.15	100	promote an influx of calcium ions, therefore producing positive inotropic and vasoconstrictor effects	more than 10 times	toxic because it causes coronary vasoconstriction
